Publication PMC2263054, “Functional evolution of the vitamin D and pregnane X receptors” (BMC Evolutionary Biology, 2007)

Legend:
[1] = tested on: ethoxyresorufin O-deethylase (EROD) activity (CYP1A-like activity); experiment: EROD assay in zebrafish primary hepatocytes; conditions: zebrafish primary hepatocytes; DIM at concentrations of 2 μM and greater
Procedure: (§1) The cells are cultured at 26°C in ambient atmosphere.

[2] = tested on: CYP3C1; experiment: zebrafish in vivo liver transcription, semi-quantitative RT-PCR: CYP3C1
Procedure: Adult zebrafish were purchased from a commercial fish supplier and acclimatized for at least two-weeks in 20 L tanks with flow-through freshwater at 22°C. A single dose of 15 mg/kg of 5α-cyprinol, 5β-cyprinol 27-sulfate, 5α-scymnol or 5β-scymnol-27 sulfate, dissolved in saline, was injected intraperitoneally. A control group was injected with saline. After 48 hr, the animals were decapitated and livers of three fish (n = 5 each group) were removed, pooled and weighed, totalizing 15 fish per group. Fish were not fed throughout the experimental period. […].
To study the transcription of CYP3C1, ABCB5, PXR, GAPDH and β-actin genes in zebrafish, initial fragments of these genes were identified (Genbank: AW202769, Genbank: BQ284593, Genbank: AAM22215, Genbank: BC083506, Genbank: AF057040, respectively). The PCR primers for CYP3C1 were designed using MacVector Software and primers for MDR1 were designed using Primer 3 Software (Whitehead Institute for Biomedical Research; [75]). Primer pairs for amplifying CYP3C1 fragment were 5'-[…]-3' (sense) and 5'-[…]-3' (antisense) and for amplifying ABCB5 were 5'-[…]-3' (sense) and 5'-[…]-3' (antisense). The PCR primers for PXR were 5'-[…]-3' (sense) and 5'-[…]-3' (antisense), for amplifying GAPDH were 5'-[…]-3' (sense) and 5' […] 3' (antisense) and for β-actin were 5'-[…]-3' (sense) and 5'-[…]-3' (antisense). RNA was isolated using Trizol (Invitrogen) according to manufacturer's instructions. Purity and concentration of RNA of each sample were verified at 260 nm. The RNA integrity was checked by non-denaturing gel electrophoresis using 1 μg of total RNA in each sample.
Two micrograms of total RNA were reversed transcribed using Ominiscript RT Kit (Qiagen, Valencia, CA, USA). cDNA concentration was checked at 260 nm, and the amount adjusted to 1 μg to perform semi-quantitative RT-PCR. The expected size of the PXR, Cyp3C1, abcb5, GAPDH and β-actin fragments were 577, 477, 218, 234 and 550 bp, respectively. Biotools DNA polymerase (Biotools B&M Labs, S.A., Madrid, Spain) kit was used for the PCR reaction using a thermocycler Personal Mastercycler (Eppendörf) with the following PCR program: 5 cycles of 94°C for 5 s, 72°C for 35 s; 5 cycles of 94°C for 5 s, 70°C for 10 s, 72°C for 35 s; and 23, 24, 35, 15 and 24 cycles (PXR, Cyp3C1, abcb5, GAPDH and β-actin, respectively) of 94°C for 5 s, 61, 54, 48, 49 and 61°C for 10 s (PXR, Cyp3C1, abcb5, GAPDH and β-actin, respectively), and 72°C for 35 s. The PXR, CYP3C1, ABCB5 and GAPDH transcript levels were quantified using Gel-Quant™ (Multiplexed Biotechologies) and β-actin was used to normalize the data. The Shapiro-Wilk W test was used to evaluate normality. When data were parametric the analysis was performed using Student t test; otherwise Mann Whitney U test was applied. […]

[3] = tested on: zebrafish PXR; conditions: luciferase reporter in HepG2 cells, normalized to 20 μM androstanol
[4] = tested on: Ciona VDR/PXR; conditions: HepG2-NTCP cells, luciferase reporter; unit not given; also cells saying No effect
[5] = tested on: testosterone 6β-hydroxylation activity (CYP3A-like activity); experiment: testosterone hydroxylation (HPLC) in zebrafish primary hepatocytes
Procedure: as §1
100 μL of sample, calibration standard, or quality material standard were pipetted into separate microcentrifuge tubes and mixed with 100 μL of methanol. Samples were vortexed and centrifuged at 13,000 rpm for 4 min. The supernatant was then injected into the HPLC.
The flow rate was 1.2 mL/min and total run time was 25 min.

[6] = tested on: 6β- and 12α-hydroxylation of testosterone; experiment: testosterone hydroxylation (HPLC) in African clawed frog primary hepatocytes; format: cell-based, Xenopus laevis; conditions: relative to vehicle control
Procedure: Xenopus laevis primary hepatocytes were cultured by a protocol adapted from a published report. Frogs are sacrificed with MS-222, rinsed with 70% ethanol, and the liver lobes perfused via the heart, initially with 375 mL Barth (88 mM NaCl, 1 mM K2SO4, and 10 mM HEPES-NaOH, pH 7.4) containing 0.82 mM MgCl2 and 0.1 mg/mL heparin, and then with 25 mL Barth containing 2.22 mM Ca(NO3)2, 2.74 mM CaCl2, and 200 U/mL type I collagenase (Worthington Chemicals, Lakewood, NJ). Livers are minced to fine pieces in 12.5 mL Barth-collagenase solution and then incubated for 10 min at room temperature, periodically disaggregating the liver pieces with a Pasteur pipette. The liver cells are then placed on a shaking incubator for 5 min at room temperature, followed by another 10 min of periodic pipetting to complete disaggregation. Cells are then filtered through a 130 μm Nitex nylon mesh (Fisher Scientific), following by spinning at 500 g for 5 min at 4°C. The supernatant is then aspirated and diluted to 50 mL with Barth plus MgCl2 and then allowed to settle while cooled in ice for 30 min. The supernatant is removed, and the cellular pellet is resuspended and subjected to one more round of nylon mesh filtration, dilution in Barth plus MgCl2, and settling while cooled in ice. The supernatant is removed and the remaining cells are washed once with Barth plus MgCl2 and then centrifuged at 500 g for 5 min at 4°C. The cells are then resuspended in 0.6 × Coon's Modified Ham's F-12 medium (Invitrogen) supplemented with 0.1 × Barth (88 mM NaCl, 1 mM K2SO4, 10 mM HEPES), 200 U/mL penicillin G, 100 μg/mL streptomycin sulfate, 2 mM glutamine, 0.2% glucose, and 10 μg/mL bovine insulin (Calbiochem), with the final pH adjusted to 7.5. […] Cells are cultured at 20°C in ambient atmosphere.
Testosterone metabolites were identified and quantitated by HPLC. […] The supernatant was then injected into the HPLC.

C[C@H](CCCC(CO)COS(=O)(=O)O)[C@H]1CC[C@H]2[C@@H]3[C@H](O)C[C@H]4C[C@H](O)CC[C@]4(C)[C@H]3C[C@H](O)[C@]12C (stereo partly drawn) [5α-Cyprinol 27-sulfate]
effect on EROD activity [1]: found not to affect EROD activity
liver transcription of CYP3C1 ([2]; zebrafish, 15 mg/kg intraperitoneally, single dose, 48 hr): 1.71 ± 0.50 arbitrary units normalized to β-actin
activation of recombinant zebrafish PXR [3]: all activate recombinant zebrafish PXR
Ciona VDR/PXR EC50 ± SD [4]: No effect
increase in 6β-hydroxylation activity compared to vehicle-treated control [5]: 15–20%
effect on 6β- and 12α-hydroxylation of testosterone [6]: neither activity was substantially increased relative to vehicle control

C[C@H](CCCC(CO)CO)[C@H]1CC[C@H]2[C@@H]3[C@H](O)C[C@H]4C[C@H](O)CC[C@]4(C)[C@H]3C[C@H](O)[C@]12C [5α-Cyprinol, 5α-cholestan-3α,7α,12α,26,27-pentol]
liver transcription of CYP3C1 ([2]; ip, 15 mg/kg, 48 h): 1.33 ± 0.33 arbitrary units normalized to β-actin
Ciona VDR/PXR EC50 ± SD [4]: No effect
effect on 6β- and 12α-hydroxylation of testosterone [6]: neither activity was substantially increased relative to vehicle control
